Test [1] addresses Tumour suppressor p53/oncoprotein Mdm2 (Homo sapiens, UniProt P04637+Q00987). Briefly: Inhibition of p53-HDM2 (unknown origin) interaction. It is filed as protein assay.
Another test concerns the target T1, Estrogen receptor (Homo sapiens, UniProt P03372).
T1 sequence (P03372 whole entry): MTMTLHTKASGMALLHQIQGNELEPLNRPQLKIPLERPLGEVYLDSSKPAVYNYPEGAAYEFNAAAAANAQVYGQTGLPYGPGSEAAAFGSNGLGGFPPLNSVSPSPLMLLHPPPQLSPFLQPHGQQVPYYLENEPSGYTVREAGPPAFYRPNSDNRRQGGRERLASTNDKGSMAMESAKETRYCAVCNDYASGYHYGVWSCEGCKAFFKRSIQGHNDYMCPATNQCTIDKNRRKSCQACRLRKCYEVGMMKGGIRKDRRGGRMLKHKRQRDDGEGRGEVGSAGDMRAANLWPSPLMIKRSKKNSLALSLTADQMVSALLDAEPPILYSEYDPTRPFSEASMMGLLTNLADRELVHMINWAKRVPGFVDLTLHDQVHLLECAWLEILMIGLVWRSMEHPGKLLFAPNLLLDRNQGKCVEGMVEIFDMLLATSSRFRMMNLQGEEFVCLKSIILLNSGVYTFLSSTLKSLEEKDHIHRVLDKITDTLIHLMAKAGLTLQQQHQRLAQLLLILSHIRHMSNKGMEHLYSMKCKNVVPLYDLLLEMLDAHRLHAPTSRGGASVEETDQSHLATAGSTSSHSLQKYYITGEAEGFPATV
Briefly: Binding affinity to ERalpha (unknown origin).

The next test deals with Bcl-2-like protein 1 (Homo sapiens, UniProt Q07817). Description: Inhibition of BCL-xL-BH3 domain (unknown origin) interaction.
For test [2], the target named is E3 ubiquitin-protein ligase Mdm2 (Homo sapiens, UniProt Q00987). Briefly: Binding affinity to MDM2 (unknown origin).
The target in test [3] is Menin/Histone-lysine N-methyltransferase MLL (Homo sapiens, UniProt O00255+Q03164). Description: Inhibition of menin-MLL (unknown origin) interaction. Type of test: protein assay.

Starred links: 1 amine or outer side, 2 acyl side, 3 side chain; linkers in the order of their positions; H or OH if unused. Positions of bridges follow the written chain, without caps; N, C: chain ends. Non-standard residues stand in square brackets, D forms with d. Residues, ends and D or L forms follow the SMILES beside them. X1 = O=C([C@H]1CNC[C@@H]1N[*:1])[*:2]; X2 = O=C([C@H]1CCC[C@@H]1N[*:1])[*:2]

Broadly, the IC50 is the concentration at which inhibition is half-maximal. A low value points to greater potency in that assay. For orientation: Kd means the equilibrium constant for the complex coming apart. Low values mean a tighter complex, high ones a looser complex. Usually Ki stands for a dissociation constant, usually derived from enzyme kinetics or from competition with a known ligand. Low readings indicate higher affinity, high ones lower affinity.

Chain of Tumour suppressor p53/oncoprotein Mdm2 (P04637 whole entry): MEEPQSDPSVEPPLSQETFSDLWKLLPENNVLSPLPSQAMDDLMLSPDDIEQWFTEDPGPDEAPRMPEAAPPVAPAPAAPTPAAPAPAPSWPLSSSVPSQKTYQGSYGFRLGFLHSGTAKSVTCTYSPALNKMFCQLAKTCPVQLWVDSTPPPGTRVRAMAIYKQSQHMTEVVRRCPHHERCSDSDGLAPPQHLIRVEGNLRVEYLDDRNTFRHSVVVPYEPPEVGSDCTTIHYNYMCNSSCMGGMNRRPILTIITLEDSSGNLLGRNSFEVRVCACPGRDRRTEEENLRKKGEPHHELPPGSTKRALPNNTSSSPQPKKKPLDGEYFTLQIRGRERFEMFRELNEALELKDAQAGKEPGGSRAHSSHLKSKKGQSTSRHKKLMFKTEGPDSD
Chain of Tumour suppressor p53/oncoprotein Mdm2 (Q00987 whole entry): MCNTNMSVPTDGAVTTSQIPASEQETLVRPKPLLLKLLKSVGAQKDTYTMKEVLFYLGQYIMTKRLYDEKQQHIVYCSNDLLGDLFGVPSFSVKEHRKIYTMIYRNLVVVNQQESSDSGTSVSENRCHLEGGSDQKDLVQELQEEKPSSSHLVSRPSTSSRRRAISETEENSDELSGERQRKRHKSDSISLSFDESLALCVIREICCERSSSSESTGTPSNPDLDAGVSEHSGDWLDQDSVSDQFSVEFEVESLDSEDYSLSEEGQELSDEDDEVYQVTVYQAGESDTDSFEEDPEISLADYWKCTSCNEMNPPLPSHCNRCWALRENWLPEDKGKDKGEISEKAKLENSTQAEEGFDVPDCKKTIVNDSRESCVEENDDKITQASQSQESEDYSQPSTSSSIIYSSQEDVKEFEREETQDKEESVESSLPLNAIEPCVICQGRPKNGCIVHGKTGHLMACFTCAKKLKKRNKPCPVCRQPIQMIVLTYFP
Chain of Bcl-2-like protein 1 (Q07817 whole entry, the tested form may be a part): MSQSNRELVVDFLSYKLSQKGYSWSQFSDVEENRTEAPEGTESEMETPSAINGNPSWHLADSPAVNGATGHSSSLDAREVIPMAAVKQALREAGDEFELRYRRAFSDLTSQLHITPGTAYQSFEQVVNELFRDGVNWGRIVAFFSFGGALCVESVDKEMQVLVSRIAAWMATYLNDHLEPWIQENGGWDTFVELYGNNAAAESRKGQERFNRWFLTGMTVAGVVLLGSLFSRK
Chain of E3 ubiquitin-protein ligase Mdm2 (Q00987 whole entry): as the sequence (Q00987 whole entry) above

`CC(C)C[C@@H]1NC(=O)[C@H](Cc2c[nH]c3ccc(Cl)cc23)NC(=O)[C@H](CCC(=O)O)NC(=O)[C@H](Cc2ccccc2)NC(=O)[C@@H]2CCCN2C(=O)[C@H]2CCCN2C(=O)[C@H](Cc2ccccc2)NC(=O)[C@H](CCC(=O)O)NC(=O)[C@H](Cc2c[nH]c3ccccc23)NC(=O)[C@H](CC(=O)O)NC1=O` returned an IC50 in test [1] of 140 nM. Still for that read-out and setting: the same measure for `CC(C)CCN(CC(=O)N(CCS(N)(=O)=O)CC(=O)N(CC(N)=O)Cc1ccc([N+](=O)[O-])cc1)C(=O)CN(CCCP(=O)(O)O)C(=O)CN(Cc1ccc([N+](=O)[O-])cc1)C(=O)CN(CCc1c[nH]c2ccccc12)C(=O)CN(CCCCP(=O)(O)O)C(=O)CN(Cc1ccc([N+](=O)[O-])cc1)C(=O)CN(CCc1ccccc1)C(=O)CNCc1ccc([N+](=O)[O-])cc1`: 6600 nM. For `CC(=O)N[C@@H](Cc1cnc[nH]1)C(=O)N[C@@H](CCCCN)C(=O)N[C@@]1(C)CCCCCCCC[C@@](C)(C(=O)N[C@@H](CC(C)C)C(=O)N[C@@H](CCC(N)=O)C(=O)N[C@@H](CC(=O)O)C(=O)N[C@@H](CO)C(N)=O)NC(=O)[C@H](CCC(N)=O)NC(=O)[C@H](Cc2cnc[nH]2)NC(=O)[C@H](CC(C)C)NC1=O`, binding on Estrogen receptor was characterised by a dissociation constant (Kd) of 352 nM. `CC(=O)N[C@H]1CNC[C@@H]1C(=O)N[C@@H](C)C(=O)N[C@H]1CCC[C@@H]1C(=O)N[C@@H](CCCNC(=N)N)C(=O)N[C@H]1CCC[C@@H]1C(=O)N[C@@H](CC(C)C)C(=O)N[C@H]1CCC[C@@H]1C(=O)N[C@@H](CCCCN)C(=O)N[C@@H](CC(C)C)C(=O)NCC(=O)N[C@@H](CC(=O)O)C(=O)N[C@@H](C)C(=O)N[C@@H](Cc1ccccc1)C(=O)N[C@@H](CC(N)=O)C(=O)N[C@@H](CCCNC(=N)N)C(N)=O` (Ac-[X1]A[X2]R[X2]L[X2]KLGDAFNR-NH2) gave an inhibition constant (Ki) at Bcl-2-like protein 1 of 2 nM.

In test [2], `CC(C)C[C@H](NC(=O)[C@@H]1CSSC[C@H](N)C(=O)N[C@@H](CC(N)=O)C(=O)N[C@H]2CSSC[C@H](NC(=O)[C@H](CC(C)C)NC(=O)[C@H](Cc3ccccc3)NC(=O)[C@H]([C@@H](C)O)NC(=O)[C@H](CCC(=O)O)NC(=O)[C@@H]3CCCN3C(=O)[C@H](C)NC(=O)[C@H](CCCCN)NC2=O)C(=O)N[C@@H](Cc2ccc(O)cc2)C(=O)N[C@@H](Cc2c[nH]c3ccccc23)C(=O)N[C@@H](CCCNC(=N)N)C(=O)N1)C(=O)N[C@@H](CCC(N)=O)C(=O)N[C@@H](Cc1cnc[nH]1)C(N)=O` (H-CNCKAPETFLCYWRCLQH-NH2; disulfide 1-15, 3-11) yielded a Kd of 17700 nM.

Consider `CC(=O)N[C@@H](CCCNC(=N)N)C(=O)N[C@@H](Cc1c[nH]c2ccccc12)C(=O)NC1CCCCCCCNC(=O)[C@@H]2CCCN2C(=O)[C@H](CCCNC(=N)N)NC(=O)[C@H](C)NC(=O)[C@@H]2CCCN2C(=O)C(Cc2ccccc2)NC1=O` (single isomer, unassigned), for which, in test [3], the affinity corresponds to a Ki of 23.8 nM.

The values above are taken from ChEMBL document CHEMBL3751840, “Peptide-based inhibitors of protein-protein interactions” (Bioorg Med Chem Lett, 2016).
